≈ marks a conversion by molar mass, not a printed value.
Tests used:
[1] = test system: Bacillus subtilis PCI 219; assay: Antibacterial spectrum, standard serial dilution method in liquid medium; format: cell-based; conditions: PCI219, bacto-yeast nitrogen base-glucose-NZ-amine liquid medium, read-out: Minimum growth inhibitory concentration
Method: (§1) The antibacterial spectra of a bispolide A compound and a bispolide B compound were tested on a liquid medium consisting of bacto-yeast nitrogen base (a product of Difco Laboratories)-glucose-NZ-amine by a standard serial dilution method.

[2] = test system: MRSA ngs1 (methicillin-resistant strain of Staphylococcus aureus); assay: as above; format: cell-based; conditions: bacto-yeast nitrogen base-glucose-NZ-amine liquid medium, read-out: Minimum growth inhibitory concentration
Method: as §1

[3] = test system: MRSA ngs2 (methicillin-resistant strain of Staphylococcus aureus); assay: as above; format: cell-based; conditions: bacto-yeast nitrogen base-glucose-NZ-amine liquid medium, read-out: Minimum growth inhibitory concentration
Method: as §1

[4] = test system: Staphylococcus aureus FDA209P; assay: as above; format: cell-based; conditions: bacto-yeast nitrogen base-glucose-NZ-amine liquid medium, read-out: Minimum growth inhibitory concentration
Method: as §1

[5] = Solubility (physicochemical properties)
[6] = in 50% aqueous ethanol (ethanol:water 1:1 by volume)
[7] = in methanol, ethanol, dimethylsulfoxide (DMSO), acetone and ethyl acetate

With `CCC1=C\C=C\C(CC)C(C(C)C(O)CC2(O)CC(OC3CC(O)C(O)C(C)O3)C(CC)C(C)O2)OC(=O)/C=C/C(CC)=C/C=C/C(CC)C(C(C)C(O)CC2(O)CC(OC3CC(O)C(O)C(C)O3)C(CC)C(C)O2)OC(=O)\C=C\1` (stereo not shown) [bispolide A1] the MIC [1] was 0.39 mg/L (≈ 0.344 µM), the MIC [2] was 12.5 mg/L (≈ 11 µM) and the MIC [3] was no more than 0.049 mg/L. The MIC [4] was 1.56 mg/L (≈ 1.38 µM), the Solubility [5, 6] was “sparlingly soluble” and the Solubility [5, 7] was “Soluble well”. The Solubility ([5]; in water and n-hexane) was “insoluble”.
Compound `CCC1=C\C=C\C(CC)C(C(C)C(O)CC2(OC)CC(OC3CC(O)C(O)C(C)O3)C(CC)C(C)O2)OC(=O)/C=C/C(CC)=C/C=C/C(CC)C(C(C)C(O)CC2(O)CC(OC3CC(O)C(O)C(C)O3)C(CC)C(C)O2)OC(=O)\C=C\1` (stereo not shown) [bispolide A2] has an MIC [1] of 0.78 mg/L (≈ 0.68 µM), an MIC [2] of 1.56 mg/L (≈ 1.36 µM) and an MIC [3] of 3.13 mg/L (≈ 2.73 µM). The MIC [4] was 1.56 mg/L (≈ 1.36 µM), the Solubility [5, 6] was “sparlingly soluble” and the Solubility [5, 7] was “Soluble well”. The Solubility ([5]; in water and n-hexane) was “insoluble”.
With `CCC1=C\C=C\C(CC)C(C(C)C(O)CC2(OC)CC(OC3CC(O)C(O)C(C)O3)C(CC)C(C)O2)OC(=O)/C=C/C(CC)=C/C=C/C(CC)C(C(C)C(O)CC2(OC)CC(OC3CC(O)C(O)C(C)O3)C(CC)C(C)O2)OC(=O)\C=C\1` (stereo not shown) [bispolide A3] the MIC [1] was 0.78 mg/L (≈ 0.672 µM), the MIC [2] was 1.56 mg/L (≈ 1.34 µM) and the MIC [3] was 3.13 mg/L (≈ 2.69 µM). For the same compound, the MIC [4] was 1.56 mg/L (≈ 1.34 µM), the Solubility [5, 6] was “sparlingly soluble” and the Solubility [5, 7] was “Soluble well”. The Solubility ([5]; in water and n-hexane) was “insoluble”.
`CCC1=C\C=C\C(CC)C(C(C)C(O)CC2(O)CC(OC3OC(C)C(O)C(O)C3O)C(CC)C(C)O2)OC(=O)/C=C/C(CC)=C/C=C/C(CC)C(C(C)C(O)CC2(O)CC(OC3CC(O)C(O)C(C)O3)C(CC)C(C)O2)OC(=O)\C=C\1` (stereo not shown) [bispolide B1] showed an MIC [1] of 0.2 mg/L (≈ 0.174 µM), an MIC [2] of 0.39 mg/L (≈ 0.339 µM) and an MIC [3] of no more than 0.049 mg/L. The MIC [4] was 1.56 mg/L (≈ 1.36 µM), the Solubility [5, 6] was “sparingly soluble” and the Solubility [5, 7] was “Soluble well”. For the same compound, the Solubility ([5]; in water and n-hexane) was “insoluble”.
With `CCC1=C\C=C\C(CC)C(C(C)C(O)CC2(OC)CC(OC3CC(O)C(O)C(C)O3)C(CC)C(C)O2)OC(=O)/C=C/C(CC)=C/C=C/C(CC)C(C(C)C(O)CC2(O)CC(OC3OC(C)C(O)C(O)C3O)C(CC)C(C)O2)OC(=O)\C=C\1` (stereo not shown) [bispolide B2a] the MIC [1] was 0.39 mg/L (≈ 0.335 µM), the MIC [2] was 1.56 mg/L (≈ 1.34 µM) and the MIC [3] was 1.56 mg/L (≈ 1.34 µM). The MIC [4] was 1.56 mg/L (≈ 1.34 µM), the Solubility [5, 6] was “sparingly soluble” and the Solubility [5, 7] was “Soluble well”. For the same compound, the Solubility ([5]; in water and n-hexane) was “insoluble”.
Work on `CCC1=C\C=C\C(CC)C(C(C)C(O)CC2(OC)CC(OC3OC(C)C(O)C(O)C3O)C(CC)C(C)O2)OC(=O)/C=C/C(CC)=C/C=C/C(CC)C(C(C)C(O)CC2(O)CC(OC3CC(O)C(O)C(C)O3)C(CC)C(C)O2)OC(=O)\C=C\1` (stereo not shown) [bispolide B2b] yielded an MIC [1] of 0.39 mg/L (≈ 0.335 µM), an MIC [2] of 1.56 mg/L (≈ 1.34 µM) and an MIC [3] of 3.13 mg/L (≈ 2.69 µM). The MIC [4] was 0.78 mg/L (≈ 0.67 µM), the Solubility [5, 6] was “sparingly soluble” and the Solubility [5, 7] was “Soluble well”. For the same compound, the Solubility ([5]; in water and n-hexane) was “insoluble”.
For `CCC1=C\C=C\C(CC)C(C(C)C(O)CC2(OC)CC(OC3OC(C)C(O)C(O)C3O)C(CC)C(C)O2)OC(=O)/C=C/C(CC)=C/C=C/C(CC)C(C(C)C(O)CC2(OC)CC(OC3CC(O)C(O)C(C)O3)C(CC)C(C)O2)OC(=O)\C=C\1` (stereo not shown) [bispolide B3], the MIC [1] was 0.78 mg/L (≈ 0.662 µM), the MIC [2] was 1.56 mg/L (≈ 1.32 µM) and the MIC [3] was 3.13 mg/L (≈ 2.66 µM). For the same compound, the MIC [4] was 1.56 mg/L (≈ 1.32 µM), the Solubility [5, 6] was “sparingly soluble” and the Solubility [5, 7] was “Soluble well”. The Solubility ([5]; in water and n-hexane) was “insoluble”.

— patent US8318684B2, “Antibiotics, bispolides A1, A2, and A3 as well as bispolides B1, B2a, B2b and B3 and processes for producing said antibiotics” (Nimura Genetic Solutions Co., Ltd., priority 2006, dated 2012)
